The results in this text go back to patent US8273783B2, “Microbiocides” (Syngenta Crop Protection LLC, priority 2009, dated 2012).

The inhibition is the change of the read-out against control, counted positive when it falls. What is called melting point is the temperature, or range, at which the solid turns liquid.

For one data set, the system named is Mycosphaerella arachidis. As to the kind of experiment: Action against Mycosphaerella arachidis, liquid culture (early leaf spot). It is filed as cell-based. The following applies: PDB potato dextrose broth, 0.02% active ingredient, 24° C., photometrically after 6-7 days, read-out: inhibition of growth. Here is the method: Conidia of the fungus from cryogenic storage were directly mixed into nutrient broth (PDB potato dextrose broth). After placing a (DMSO) solution of the test compounds (0.02% active ingredient) into a microtiter plate (96-well format) the nutrient broth containing the fungal spores was added. The test plates were incubated at 24° C. and the inhibition of growth was measured photometrically after 6-7 days.

Another data set concerns Pyrenophora teres. Briefly: Action against Pyrenophora teres (net blotch) on barley leaf segments. The following applies: foliar, 96 h, 0.02% active ingredient, assessed 4 days after inoculation, read-out: inhibition (preventive fungicidal activity). The format is in vivo. The method, then:
Barley leaf segments were placed on agar in multiwell plates (24-well format) and sprayed with test solutions (0.02% active ingredient). After drying, the leaf disks were inoculated with a spore suspension of the fungus. After appropriate incubation the activity of a compound was assessed 4 days after inoculation as preventive fungicidal activity.

Data set [1] deals with Erysiphe Graminis f.sp. Tritici. Briefly: Action against Erysiphe graminis f.sp. tritici (wheat powdery mildew), leaf segments, preventive. It is filed as in vivo. The following applies: Blumeria graminis, foliar, 168 h, 0.02% active ingredient, assessed 7 days after inoculation, read-out: inhibition (preventive fungicidal activity). Here is the method:
Wheat leaf segments were placed on agar in multiwell plates (24-well format) and sprayed with test solutions (0.02% active ingredient). After drying, the leaf disks were inoculated with a spore suspension of the fungus. After appropriate incubation the activity of a compound was assessed 7 days after inoculation as preventive fungicidal activity.

The test system of a further data set is Botryotinia fuckelianal. As to the kind of experiment: Action against Botryotinia fuckeliana, liquid culture (gray mould). The format is cell-based. The conditions noted are these: Botrytis cinerea; nutrient broth, 0.02% active ingredient, 24° C., photometrically after 3-4 days; read-out: inhibition of growth. Here is the method: Conidia of the fungus from cryogenic storage were directly mixed into nutrient broth. After placing a (DMSO) solution (0.02% active ingredient) of the test compounds into a microtiter plate (96-well format) the nutrient broth containing the fungal spores was added. The test plates were incubated at 24° C. and the inhibition of growth was determined photometrically after 3-4 days.

Data set [2] relates to Puccinia Recondita. Briefly: Preventive action against Puccinia recondita (brown rust) on wheat leaf segments. It is filed as in vivo. The conditions noted are these: foliar, 192 h, 0.02% active ingredient, assessed 8 days after inoculation, read-out: inhibition (preventive fungicidal activity). The source says:
Wheat leaf segments were placed on agar in multiwell plates (24-well format) and sprayed with test solutions (0.02% active ingredient). After drying, the leaf disks were inoculated with a spore suspension of the fungus.

In data set [3] the test system is Puccinia Recondita. Briefly: Curative action against Puccinia recondita (brown rust) on wheat leaf segments. It is filed as in vivo. The conditions noted are these: foliar, sprayed one day after inoculation, 0.02% active ingredient, assessed 8 days after inoculation, read-out: inhibition (curative fungicidal activity). The source says:
Wheat leaf segments were placed on agar in multiwell plates (24-well format) and inoculated with a spore suspension of the fungus. One day after inoculation the leaf segments were sprayed with test solutions (0.02% active ingredient).

The test system of a further data set is Phaeosphaeria nodorum. As to the kind of experiment: Preventive action against Phaeosphaeria nodorum (glume blotch) on wheat leaf segments. It is filed as in vivo. The conditions noted are these: Parastagonospora nodorum, foliar, 96 h, 0.02% active ingredient, assessed 4 days after inoculation, read-out: inhibition (preventive fungicidal activity). The method, then: Wheat leaf segments were placed on agar in a multiwell plate (24-well format) and sprayed with test solutions (0.02% active ingredient). After drying, the leaf disks were inoculated with a spore suspension of the fungus. After appropriate incubation the activity of a compound was assessed 4 days after inoculation as preventive fungicidal activity.

For the compound `COC(c1csc(Cl)c1Cl)C(C)N(OC)C(=O)c1cn(C)nc1C(F)F` (stereo not drawn) [1.037 (diastereoisomer pair 1), 3-difluoromethyl-1-methyl-1H-pyrazole-4-carboxylic acid methoxy-[2-methoxy-1-methyl-2-(4,5-dichlorothiophen-3-yl)ethyl]amide], the inhibition at 0.02 % strength (in the data set with Mycosphaerella arachidis; in the data set on Pyrenophora teres; in data set [1]; in the data set on Botryotinia fuckelianal; in the data set on Puccinia Recondita [2]) was no less than 80% in each case.
With `COC(c1csc(Cl)c1Cl)C(C)N(OC)C(=O)c1cn(C)nc1C(F)F` (stereo not drawn) [1.037 (diastereoisomer pair 2), 3-difluoromethyl-1-methyl-1H-pyrazole-4-carboxylic acid methoxy-[2-methoxy-1-methyl-2-(4,5-dichlorothiophen-3-yl)ethyl]amide], the inhibition at 0.02 % strength with Puccinia Recondita [3] was no less than 80%.
`CON(C(=O)c1cn(C)nc1C(F)F)C(C)Cc1c(Cl)sc(Cl)c1Cl` (centres unmarked) [Compound 1.001, 3-difluoromethyl-1-methyl-1H-pyrazole-4-carboxylic acid methoxy-[1-methyl-2-(2,4,5-trichlorothiophene-3-yl)ethyl]amide] yielded a melting point of 70 to 72 °C. In the data set with Puccinia Recondita [3], the inhibition at 0.02 % strength is no less than 80%. Moreover, the inhibition at 0.02 % strength in the data set with Mycosphaerella arachidis was no less than 80%. Also, the inhibition at 0.02 % strength in the data set on Pyrenophora teres was no less than 80%. The inhibition at 0.02 % strength in data set [1] was no less than 80%. In the data set on Phaeosphaeria nodorum, the inhibition at 0.02 % strength was no less than 80%. The inhibition at 0.02 % strength with Botryotinia fuckelianal was no less than 80%. Further, the inhibition at 0.02 % strength with Puccinia Recondita [2] is no less than 80%.
On to `COC(c1c(Cl)sc(Cl)c1Cl)C(C)N(OC)C(=O)c1cn(C)nc1C(F)F` (centres unmarked) [Compound 1.016, 3-difluoromethyl-1-methyl-1H-pyrazole-4-carboxylic acid methoxy-[2-methoxy-1-methyl-2-(2,4,5-trichlorothiophene-3-yl)ethyl]amide], for which the melting point is 113 to 116 °C. The inhibition at 0.02 % strength with Puccinia Recondita [3] is no less than 80%. Moreover, in the data set on Mycosphaerella arachidis, the inhibition at 0.02 % strength was no less than 80%. Further, in the data set on Pyrenophora teres, the inhibition at 0.02 % strength was no less than 80%. Also, the inhibition at 0.02 % strength in data set [1] was no less than 80%. Moreover, in the data set on Phaeosphaeria nodorum, the inhibition at 0.02 % strength was no less than 80%. Also, the inhibition at 0.02 % strength in the data set on Botryotinia fuckelianal was no less than 80%. Also, the inhibition at 0.02 % strength in the data set with Puccinia Recondita [2] was no less than 80%.
For the compound `COC(c1csc(Cl)c1Cl)C(C)N(OC)C(=O)c1cn(C)nc1C(F)F` (centres unmarked) [Compound 1.037, 3-difluoromethyl-1-methyl-1H-pyrazole-4-carboxylic acid methoxy-[2-methoxy-1-methyl-2-(4,5-dichlorothiophen-3-yl)ethyl]amide], the melting point is 80 to 83 °C.
